Test results: article PMC12136037, “Type II kinase inhibitors that target Parkinson’s disease–associated LRRK2” (Science Advances, 2025)
Read-outs that look alike come from different tables or passages of the source.

Columns and labels:
Test in all cases: DSF 100 kinase selectivity screen;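 also: compound tested at 20 µM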
Format in all cases: binding
[1] = target: T1, ~100 representative kinases (Homo sapiens, UniProt Q9P289); settings: protein MST4; average of three replicates
T1 construct: Recombinant protein kinase domains with a concentration of 2 μM
Outline: (§1)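 Each kinase domain, at 2 μM, is mixed with 20 μM test compound and SYPRO Orange in Hepes (20 mM, pH 7.5) with 500 mM NaCl. Temperature is then raised at 3°C/min and fluorescence-monitored unfolding yields the melting temperature change, ΔTm in degrees Celsius.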

[2] = target: T2, ~100 representative kinases (Homo sapiens, UniProt Q00536)
T2 construct: Recombinant protein kinase domains with a concentration of 2 μM
Outline: as §1

[3] = target: T3, ~100 representative kinases (Homo sapiens, UniProt Q8TDX7); settings: protein NEK7; average of three replicates
T3 construct: Recombinant protein kinase domains with a concentration of 2 μM
Outline: as §1

[4] = target: T4, ~100 representative kinases (Homo sapiens, UniProt Q13043); settings: Protein STK4; DSF; average of three replicates
T4 construct: Recombinant protein kinase domains with a concentration of 2 μM
T4 sequence (Q13043 1-487): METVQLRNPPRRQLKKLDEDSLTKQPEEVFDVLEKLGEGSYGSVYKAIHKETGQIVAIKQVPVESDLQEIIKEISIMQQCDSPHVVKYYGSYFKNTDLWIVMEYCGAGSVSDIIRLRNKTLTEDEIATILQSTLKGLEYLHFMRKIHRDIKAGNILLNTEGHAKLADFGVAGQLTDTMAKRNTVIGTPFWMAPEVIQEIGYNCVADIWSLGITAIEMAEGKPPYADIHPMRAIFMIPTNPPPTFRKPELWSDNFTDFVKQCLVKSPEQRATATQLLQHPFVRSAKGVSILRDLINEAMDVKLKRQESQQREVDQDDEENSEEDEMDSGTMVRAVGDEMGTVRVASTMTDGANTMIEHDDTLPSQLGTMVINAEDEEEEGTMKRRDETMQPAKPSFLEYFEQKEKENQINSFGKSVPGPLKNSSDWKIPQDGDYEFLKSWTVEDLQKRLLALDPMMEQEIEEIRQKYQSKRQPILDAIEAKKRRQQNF
Outline: as §1

[5] = target: T5, ~100 representative kinases (Homo sapiens, UniProt P22830); settings: protein FECH; average of three replicates
T5 construct: Recombinant protein kinase domains with a concentration of 2 μM
T5 sequence (P22830 55-423): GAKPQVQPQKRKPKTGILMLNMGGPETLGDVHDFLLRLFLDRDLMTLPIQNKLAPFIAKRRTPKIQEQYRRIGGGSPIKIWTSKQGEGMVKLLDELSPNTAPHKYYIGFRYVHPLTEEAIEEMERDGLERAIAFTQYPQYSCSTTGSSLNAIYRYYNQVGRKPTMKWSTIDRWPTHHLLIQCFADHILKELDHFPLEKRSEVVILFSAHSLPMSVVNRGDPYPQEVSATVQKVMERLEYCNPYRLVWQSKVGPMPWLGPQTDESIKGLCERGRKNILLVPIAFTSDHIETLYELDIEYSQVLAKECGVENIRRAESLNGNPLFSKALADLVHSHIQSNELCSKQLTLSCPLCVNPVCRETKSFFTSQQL
Outline: as §1

[6] = target: T6, ~100 representative kinases (Homo sapiens, UniProt P51955); settings: protein NEK2; average of three replicates
T6 construct: Recombinant protein kinase domains with a concentration of 2 μM
T6 sequence (P51955 1-445): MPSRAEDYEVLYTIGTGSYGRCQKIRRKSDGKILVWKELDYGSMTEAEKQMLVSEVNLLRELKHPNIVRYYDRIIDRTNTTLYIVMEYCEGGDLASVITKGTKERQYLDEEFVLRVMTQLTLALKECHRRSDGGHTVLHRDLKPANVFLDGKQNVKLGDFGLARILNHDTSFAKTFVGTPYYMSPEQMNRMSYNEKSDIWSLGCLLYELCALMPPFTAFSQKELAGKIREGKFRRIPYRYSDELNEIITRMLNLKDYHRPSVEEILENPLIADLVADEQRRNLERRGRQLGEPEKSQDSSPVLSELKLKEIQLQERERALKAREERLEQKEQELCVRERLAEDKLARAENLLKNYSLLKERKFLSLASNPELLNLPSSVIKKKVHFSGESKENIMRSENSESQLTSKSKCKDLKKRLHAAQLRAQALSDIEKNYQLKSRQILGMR
Outline: as §1

[7] = target: T7, ~100 representative kinases (Homo sapiens, UniProt Q13557); settings: Protein CAMK2D; average of three replicates
T7 construct: Recombinant protein kinase domains with a concentration of 2 μM
Outline: as §1

[8] = target: T8, ~100 representative kinases (Homo sapiens, UniProt P17948); settings: protein FLT1; average of three replicates
T8 construct: Recombinant protein kinase domains with a concentration of 2 μM
Outline: as §1

[9] = target: T9, ~100 representative kinases (Homo sapiens, UniProt P51813); settings: Protein BMX; average of three replicates
T9 construct: Recombinant protein kinase domains with a concentration of 2 μM
T9 sequence (P51813 1-675): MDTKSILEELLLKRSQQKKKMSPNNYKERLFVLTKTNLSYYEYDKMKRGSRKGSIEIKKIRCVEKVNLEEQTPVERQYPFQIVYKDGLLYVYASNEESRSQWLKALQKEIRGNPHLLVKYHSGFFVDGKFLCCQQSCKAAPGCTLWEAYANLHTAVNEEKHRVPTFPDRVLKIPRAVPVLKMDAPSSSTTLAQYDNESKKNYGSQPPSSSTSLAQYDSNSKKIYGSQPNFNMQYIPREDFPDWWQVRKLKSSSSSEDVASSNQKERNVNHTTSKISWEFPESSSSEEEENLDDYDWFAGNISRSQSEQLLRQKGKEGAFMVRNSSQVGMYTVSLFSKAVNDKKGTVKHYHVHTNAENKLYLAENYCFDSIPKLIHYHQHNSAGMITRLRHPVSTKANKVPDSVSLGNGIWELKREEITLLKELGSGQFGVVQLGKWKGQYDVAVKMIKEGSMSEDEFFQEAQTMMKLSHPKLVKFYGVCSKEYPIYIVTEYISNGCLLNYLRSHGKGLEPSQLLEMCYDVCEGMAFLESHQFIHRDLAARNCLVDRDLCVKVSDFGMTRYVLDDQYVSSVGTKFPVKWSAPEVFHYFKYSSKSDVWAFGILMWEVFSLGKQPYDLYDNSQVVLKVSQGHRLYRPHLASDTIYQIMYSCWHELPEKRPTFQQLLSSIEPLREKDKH
Outline: as §1

[10] = target: T10, ~100 representative kinases (Homo sapiens, UniProt Q00532); settings: Protein CDKL1; average of three replicates
T10 construct: Recombinant protein kinase domains with a concentration of 2 μM
Outline: as §1

[11] = target: T11, ~100 representative kinases (Homo sapiens, UniProt Q9Y6E0); settings: protein MST3; average of three replicates
T11 construct: Recombinant protein kinase domains with a concentration of 2 μM
Outline: as §1

[12] = protein PCTK1, average of three replicates

T1 sequence (Q9P289 whole entry, the tested form may be a part): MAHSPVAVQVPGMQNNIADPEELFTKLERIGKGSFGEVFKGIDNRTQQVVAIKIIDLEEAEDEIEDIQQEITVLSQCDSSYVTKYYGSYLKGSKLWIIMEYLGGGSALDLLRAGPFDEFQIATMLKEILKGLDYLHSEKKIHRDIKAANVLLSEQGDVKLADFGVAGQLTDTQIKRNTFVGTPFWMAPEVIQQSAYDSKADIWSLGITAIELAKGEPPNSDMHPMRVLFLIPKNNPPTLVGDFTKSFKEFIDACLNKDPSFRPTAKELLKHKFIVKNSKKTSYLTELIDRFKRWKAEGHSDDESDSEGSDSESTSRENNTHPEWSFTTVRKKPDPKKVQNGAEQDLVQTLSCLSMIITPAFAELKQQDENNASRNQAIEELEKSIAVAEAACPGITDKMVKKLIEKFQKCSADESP
T8 sequence (P17948 27-1338): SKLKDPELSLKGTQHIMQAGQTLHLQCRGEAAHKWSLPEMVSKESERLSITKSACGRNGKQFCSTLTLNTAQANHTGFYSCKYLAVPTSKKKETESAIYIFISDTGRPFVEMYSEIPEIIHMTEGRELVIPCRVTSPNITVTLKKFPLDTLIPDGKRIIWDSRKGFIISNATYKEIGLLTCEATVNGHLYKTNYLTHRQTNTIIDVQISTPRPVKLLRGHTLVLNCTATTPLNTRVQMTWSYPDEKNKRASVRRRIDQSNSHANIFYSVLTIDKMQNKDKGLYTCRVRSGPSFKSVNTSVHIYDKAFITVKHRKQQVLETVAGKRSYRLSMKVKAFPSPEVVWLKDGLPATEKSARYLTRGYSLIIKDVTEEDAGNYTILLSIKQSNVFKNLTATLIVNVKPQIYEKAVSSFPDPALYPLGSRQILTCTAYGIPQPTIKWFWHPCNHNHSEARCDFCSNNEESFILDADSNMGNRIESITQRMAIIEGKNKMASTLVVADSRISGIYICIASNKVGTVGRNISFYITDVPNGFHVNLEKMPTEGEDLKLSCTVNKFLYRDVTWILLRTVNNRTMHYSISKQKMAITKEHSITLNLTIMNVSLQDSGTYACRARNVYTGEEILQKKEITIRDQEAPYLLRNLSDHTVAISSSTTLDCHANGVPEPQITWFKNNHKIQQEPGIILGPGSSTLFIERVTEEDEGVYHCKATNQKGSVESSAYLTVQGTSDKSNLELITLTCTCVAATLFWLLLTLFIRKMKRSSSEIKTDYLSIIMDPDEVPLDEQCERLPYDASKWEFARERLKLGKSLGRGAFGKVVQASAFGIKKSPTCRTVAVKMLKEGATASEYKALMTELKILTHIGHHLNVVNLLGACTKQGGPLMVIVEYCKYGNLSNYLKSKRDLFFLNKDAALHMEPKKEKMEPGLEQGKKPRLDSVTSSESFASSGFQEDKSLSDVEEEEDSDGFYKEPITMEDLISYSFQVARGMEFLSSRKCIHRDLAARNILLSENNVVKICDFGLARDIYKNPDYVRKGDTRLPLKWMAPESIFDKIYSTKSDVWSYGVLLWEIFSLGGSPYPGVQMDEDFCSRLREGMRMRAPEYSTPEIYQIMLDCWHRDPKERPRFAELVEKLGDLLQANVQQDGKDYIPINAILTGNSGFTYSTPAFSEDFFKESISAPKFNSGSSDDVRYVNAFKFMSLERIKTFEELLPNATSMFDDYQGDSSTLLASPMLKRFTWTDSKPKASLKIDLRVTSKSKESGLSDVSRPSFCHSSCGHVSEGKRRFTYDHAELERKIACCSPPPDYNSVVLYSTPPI
T3 sequence (Q8TDX7 whole entry, the tested form may be a part): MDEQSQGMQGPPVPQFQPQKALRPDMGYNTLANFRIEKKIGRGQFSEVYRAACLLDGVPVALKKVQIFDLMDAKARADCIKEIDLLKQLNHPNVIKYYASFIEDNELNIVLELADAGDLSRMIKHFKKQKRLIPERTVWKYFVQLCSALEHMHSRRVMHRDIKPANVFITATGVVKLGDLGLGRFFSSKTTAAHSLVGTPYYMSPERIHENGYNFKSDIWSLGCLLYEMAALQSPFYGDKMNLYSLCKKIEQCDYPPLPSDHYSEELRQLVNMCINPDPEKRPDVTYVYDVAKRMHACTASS
T7 sequence (Q13557 whole entry, the tested form may be a part): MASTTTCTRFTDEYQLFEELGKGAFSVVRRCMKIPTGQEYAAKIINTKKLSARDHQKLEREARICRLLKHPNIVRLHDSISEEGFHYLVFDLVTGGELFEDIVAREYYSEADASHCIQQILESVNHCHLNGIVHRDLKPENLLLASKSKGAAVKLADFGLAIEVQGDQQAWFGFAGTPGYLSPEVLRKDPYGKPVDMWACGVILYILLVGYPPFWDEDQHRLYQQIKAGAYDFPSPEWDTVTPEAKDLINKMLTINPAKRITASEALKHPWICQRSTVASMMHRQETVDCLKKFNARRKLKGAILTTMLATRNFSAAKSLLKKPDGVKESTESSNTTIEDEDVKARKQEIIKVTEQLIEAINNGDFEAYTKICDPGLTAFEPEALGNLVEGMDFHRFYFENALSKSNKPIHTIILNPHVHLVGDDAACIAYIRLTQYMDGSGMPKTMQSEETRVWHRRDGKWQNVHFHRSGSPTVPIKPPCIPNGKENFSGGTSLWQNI
T11 sequence (Q9Y6E0 whole entry, the tested form may be a part): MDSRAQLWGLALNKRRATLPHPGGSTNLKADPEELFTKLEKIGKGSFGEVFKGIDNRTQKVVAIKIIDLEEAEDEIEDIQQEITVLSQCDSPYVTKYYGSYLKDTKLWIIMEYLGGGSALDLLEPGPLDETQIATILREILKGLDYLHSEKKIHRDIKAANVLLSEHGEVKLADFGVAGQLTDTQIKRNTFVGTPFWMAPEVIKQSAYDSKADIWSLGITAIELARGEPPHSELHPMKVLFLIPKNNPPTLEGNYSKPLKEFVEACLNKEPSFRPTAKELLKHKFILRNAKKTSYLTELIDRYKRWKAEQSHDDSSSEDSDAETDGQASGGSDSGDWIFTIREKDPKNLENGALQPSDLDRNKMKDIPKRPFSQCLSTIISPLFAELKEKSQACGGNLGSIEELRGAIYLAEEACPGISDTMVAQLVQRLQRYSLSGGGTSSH
T10 sequence (Q00532 whole entry, the tested form may be a part): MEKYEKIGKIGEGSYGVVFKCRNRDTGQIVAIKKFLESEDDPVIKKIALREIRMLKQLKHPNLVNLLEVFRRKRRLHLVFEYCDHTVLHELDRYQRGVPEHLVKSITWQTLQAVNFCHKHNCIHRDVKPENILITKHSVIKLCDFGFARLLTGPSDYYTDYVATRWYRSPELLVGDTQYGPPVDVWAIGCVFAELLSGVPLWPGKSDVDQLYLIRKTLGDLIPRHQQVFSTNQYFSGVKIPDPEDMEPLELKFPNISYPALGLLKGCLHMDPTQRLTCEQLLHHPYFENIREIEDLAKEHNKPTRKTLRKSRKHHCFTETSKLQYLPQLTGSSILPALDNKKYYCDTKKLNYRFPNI
T2 sequence (Q00536 whole entry, the tested form may be a part): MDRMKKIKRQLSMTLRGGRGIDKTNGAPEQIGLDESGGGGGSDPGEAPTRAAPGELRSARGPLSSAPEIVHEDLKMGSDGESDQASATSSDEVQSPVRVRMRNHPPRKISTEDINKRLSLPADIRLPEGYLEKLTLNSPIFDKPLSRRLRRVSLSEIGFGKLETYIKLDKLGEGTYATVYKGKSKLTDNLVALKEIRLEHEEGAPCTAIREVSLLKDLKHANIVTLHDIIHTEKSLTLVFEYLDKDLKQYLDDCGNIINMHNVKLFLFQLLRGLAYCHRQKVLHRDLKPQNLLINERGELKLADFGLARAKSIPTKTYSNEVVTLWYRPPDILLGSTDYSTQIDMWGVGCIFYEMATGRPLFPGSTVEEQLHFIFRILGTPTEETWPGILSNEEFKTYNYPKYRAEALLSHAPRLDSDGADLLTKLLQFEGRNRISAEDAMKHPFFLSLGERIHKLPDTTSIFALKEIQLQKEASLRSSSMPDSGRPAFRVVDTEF

dTm [1] [K]	dTm [2, 12] [K]	dTm [3] [K]	dTm [4] [K]	dTm [5] [K]	dTm [6] [K]	dTm [7] [K]	dTm [8] [K]	dTm [9] [K]	dTm [10] [K]	dTm [11] [K]	SMILES	dTm [2] [K]
3.15	1.12	0.23	0.00	-0.18	0.05	0.64	1.73	0.51	0.62	-0.29	Cc1cc(NC(=O)C2(C(=O)Nc3ccc(F)cc3)CC2)cc(-c2c[nH]c3ncnc(N4CCOCC4)c23)c1 [Compound 6]	–
3.14	0.18	-0.08	0.00	-2.87	-2.11	0.42	1.63	0.52	0.61	3.03	O=C(Nc1cc(F)cc(Br)c1)C1(C(=O)Nc2cccc(-c3c[nH]c4ncnc(N5CCOCC5)c34)c2)CC1 [Compound 27]	–
1.30	5.58	-0.67	2.68	0.0636	2.18	-0.55	2.53	-0.18	1.33	1.58	COc1ccc(NC(=O)C2(C(=O)Nc3cccc(-c4c[nH]c5ncnc(N6CCOCC6)c45)c3)CC2)cc1 [Compound 16]	–
5.13	9.13	1.06	7.95	-6.06	2.76	1.12	3.57	0.67	3.38	4.95	O=C(Nc1ccc(Cl)cc1)C1(C(=O)Nc2cccc(-c3c[nH]c4ncnc(N5CCOCC5)c34)c2)CC1 [Compound 13]	–

The next lines start with the compound.

SMILES	dTm [1] [K]	dTm [2, 12] [K]	dTm [3] [K]	dTm [4] [K]	dTm [5] [K]	dTm [6] [K]	dTm [7] [K]	dTm [8] [K]	dTm [9] [K]	dTm [10] [K]	dTm [11] [K]	dTm [2] [K]
Cc1ccc(NC(=O)C2(C(=O)Nc3cccc(-c4c[nH]c5ncnc(N6CCOCC6)c45)c3)CC2)cc1 [Compound 14]	3.59	6.61	-0.37	4.82	0.67	0.85	0.26	4.17	0.15	1.85	4.56	–
Cc1ccc(-n2nc(C(C)(C)C)cc2NC(=O)Nc2cccc(-c3c[nH]c4nc(Cl)nc(N5CCOCC5)c34)c2)cc1 [Compound 30]	-1.63	3.37	-1.05	4.23	-11.52	-0.71	-0.81	7.13	-1.99	3.90	0.96	–
CCNc1nc(Nc2cc(F)c(C(=O)N3CCOCC3)cc2OC)ncc1C(F)(F)F [GNE-7915]	0.65	0.61	0.34	0.31	–	0.39	-0.06	1.69	-0.0422	0.08	0.91	–
CNC(=O)c1cc(Oc2ccc(NC(=O)Nc3cc(C(C)(C)C)nn3-c3ccc4ncccc4c3)c(F)c2)ccn1 [Rebastinib, reference compound]	5.29	13.62	3.06	7.33	-5.98	2.06	2.16	–	7.16	5.33	–	–
COc1cc2c(Oc3ccc(NC(=O)C4(C(=O)Nc5ccc(F)cc5)CC4)cc3F)ccnc2cc1OCCCN1CCOCC1 [Foretinib, reference compound]	3.65	–	-0.49	8.95	-11.10	1.91	0.34	–	6.77	1.22	4.06	4.52
Cc1ccc(C(=O)Nc2ccc(CN3CCN(C)CC3)c(C(F)(F)F)c2)cc1C#Cc1cnc2cccnn12 [Ponatinib, reference compound]	–	–	0.07	–	–	–	–	18.52	–	–	–	–
C[C@@H]1CN(c2cc(-c3n[nH]c4ccc(OC5(C)CC5)cc34)ncn2)C[C@H](C)O1 [MLi2]	-0.41	-0.14	0.03	-0.67	–	-0.21	1.10	0.51	-2.53	-0.11	0.43	–
Cn1cc(-c2c[nH]c3ncnc(N4CCOCC4)c23)cc1C#N [PFE-360]	1.97	0.35	-0.13	4.12	–	–	0.51	2.46	0.47	-0.24	2.72	–
Cc1ccc(C(=O)Nc2ccc(CN3CCN(C)CC3)c(C(F)(F)F)c2)cc1C#Cc1cnc2[nH]ncc2c1 [GZD-824, reference compound]	8.85	3.06	1.00	4.50	–	0.45	-0.21	22.54	–	4.34	10.01	–
CN[C@@H]1C[C@H]2O[C@@](C)([C@@H]1OC)n1c3ccccc3c3c4c(c5c6ccccc6n2c5c31)C(=O)NC4 [Staurosporine]	–	–	–	–	–	4.25	–	13.08	–	–	–	–
